Results as given in PubChem BioAssay (NCI).
Converted amounts (≈) assume the structure as drawn.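 How tested: cells in 96-well plates exposed to compound for 48 hours at five concentrations. Here, GI50 denotes the concentration required for 50% inhibition of growth. Definition used: TGI = concentration required for complete inhibition of growth.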

Columns and labels:
Test in all cases: NCI tumour cell line growth inhibition, 48 h
BT-549 breast = system: BT-549 breast
SNB-78 CNS = system: SNB-78 CNS
P388/ADR leukemia = system: P388/ADR leukemia
SN12K1 renal = system: SN12K1 renal
LXFL 529 NSCLC = system: LXFL 529 NSCLC

Structure (SMILES)	TGI (BT-549 breast)	TGI (SNB-78 CNS) [µM]	TGI (P388/ADR leukemia) [µM]	TGI (SN12K1 renal) [µM]	TGI (LXFL 529 NSCLC) [µM]	further results
COc1cc(C(C)O)c(S(=O)(=O)CC(C)O)nn1 (stereo unspecified)	> 100 µM	–	–	–	–	–
Cc1c2ccncc2cc2c1[nH]c1ccccc12	–	93.3	7.46	9.44	–	–
CC(=O)OCC1OC(n2cc(F)c(=O)[nH]c2=O)C(NC(=O)OCc2ccccc2)C(OC(C)=O)C1OC(C)=O (stereo unspecified)	–	> 100	> 100	> 100	–	–
O=C1CC2CC3OC3[C@H]3c4cc5c(cc4C(=O)N1C23)OCO5 (stereo partly specified)	–	–	–	–	> 100	–
CC(=O)c1c(C)nc(SSc2nc(C)c(C(C)=O)c(-c3ccc(Cl)cc3)c2C#N)c(C#N)c1-c1ccc(Cl)cc1	97.2 µg/mL	–	–	–	–	GI50 (BT-549 breast): 38.4 µg/mL (≈ 63.6 µM)
CC(=O)Nc1ccc(C(=O)NN2C(=O)C(Cl)/C2=C/c2ccco2)cc1 (stereo unspecified)	–	–	–	–	> 100	–
